Earlier results in patent publication US8283154B2, “Method of decontaminating polluted environments with bacteria on a porous support” (National Institute for Agro-Environmental Sciences …, priority 2005, dated 2012).

Structure (SMILES): Clc1c(Cl)c(Cl)c(Cl)c(Cl)c1Cl [HCB, hexachlorobenzene]
- aqueous solubility: 0.005 ppm
